Laboratory results taken from ChEMBL document CHEMBL5465560, “Selectivity Literature for EUbOPEN Chemogenomic Library” (2024).

Legend:
Conditions in all cases: at 10 µM
[1] = target: T1, Serine/threonine-protein kinase DCLK1 (Homo sapiens) (UniProt O15075); experiment: Selectivity interaction (KinomeScan (DiscoverX)) EUB0000666a DCLK1
T1 sequence (whole entry): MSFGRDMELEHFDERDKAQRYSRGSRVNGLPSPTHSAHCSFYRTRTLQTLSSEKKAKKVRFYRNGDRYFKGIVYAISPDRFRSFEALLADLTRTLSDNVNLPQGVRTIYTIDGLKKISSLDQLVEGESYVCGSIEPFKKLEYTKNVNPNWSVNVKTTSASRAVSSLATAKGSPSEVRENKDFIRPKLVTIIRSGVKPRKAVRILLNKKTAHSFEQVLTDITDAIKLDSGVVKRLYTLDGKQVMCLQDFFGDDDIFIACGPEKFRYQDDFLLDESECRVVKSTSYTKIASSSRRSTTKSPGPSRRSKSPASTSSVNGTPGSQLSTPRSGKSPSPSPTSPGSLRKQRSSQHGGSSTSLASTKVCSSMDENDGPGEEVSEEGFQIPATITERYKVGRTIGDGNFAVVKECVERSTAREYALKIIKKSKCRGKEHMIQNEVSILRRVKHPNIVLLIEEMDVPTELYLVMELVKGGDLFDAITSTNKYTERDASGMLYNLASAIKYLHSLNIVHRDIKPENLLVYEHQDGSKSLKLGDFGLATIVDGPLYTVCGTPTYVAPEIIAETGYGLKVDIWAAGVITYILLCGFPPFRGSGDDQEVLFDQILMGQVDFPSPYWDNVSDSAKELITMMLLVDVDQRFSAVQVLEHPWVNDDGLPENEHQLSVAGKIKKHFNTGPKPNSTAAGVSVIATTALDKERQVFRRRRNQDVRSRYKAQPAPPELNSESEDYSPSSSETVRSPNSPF

[2] = target: T2, 5-hydroxytryptamine receptor 1A (Homo sapiens) (UniProt P08908); experiment: Selectivity interaction (Eurofins CEREP Diversity Profile (receptors and ion channels)) EUB0000279b HTR1A
T2 sequence (whole entry): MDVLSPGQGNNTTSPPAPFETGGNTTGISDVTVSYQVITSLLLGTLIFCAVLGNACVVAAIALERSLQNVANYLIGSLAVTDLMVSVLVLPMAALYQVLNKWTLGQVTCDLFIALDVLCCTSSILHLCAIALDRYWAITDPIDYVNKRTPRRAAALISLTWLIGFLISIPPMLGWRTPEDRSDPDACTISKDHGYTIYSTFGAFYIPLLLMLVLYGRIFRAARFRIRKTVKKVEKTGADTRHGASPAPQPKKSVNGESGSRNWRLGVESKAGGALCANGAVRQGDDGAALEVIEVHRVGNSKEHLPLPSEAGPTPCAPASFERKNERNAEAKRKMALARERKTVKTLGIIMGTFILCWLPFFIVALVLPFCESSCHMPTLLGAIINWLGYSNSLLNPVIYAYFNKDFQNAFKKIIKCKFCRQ

[3] = target: Ribosomal protein S6 kinase alpha-6 (Homo sapiens, UniProt Q9UK32)
Ribosomal protein S6 kinase alpha-6, sequence (Q9UK32 whole entry): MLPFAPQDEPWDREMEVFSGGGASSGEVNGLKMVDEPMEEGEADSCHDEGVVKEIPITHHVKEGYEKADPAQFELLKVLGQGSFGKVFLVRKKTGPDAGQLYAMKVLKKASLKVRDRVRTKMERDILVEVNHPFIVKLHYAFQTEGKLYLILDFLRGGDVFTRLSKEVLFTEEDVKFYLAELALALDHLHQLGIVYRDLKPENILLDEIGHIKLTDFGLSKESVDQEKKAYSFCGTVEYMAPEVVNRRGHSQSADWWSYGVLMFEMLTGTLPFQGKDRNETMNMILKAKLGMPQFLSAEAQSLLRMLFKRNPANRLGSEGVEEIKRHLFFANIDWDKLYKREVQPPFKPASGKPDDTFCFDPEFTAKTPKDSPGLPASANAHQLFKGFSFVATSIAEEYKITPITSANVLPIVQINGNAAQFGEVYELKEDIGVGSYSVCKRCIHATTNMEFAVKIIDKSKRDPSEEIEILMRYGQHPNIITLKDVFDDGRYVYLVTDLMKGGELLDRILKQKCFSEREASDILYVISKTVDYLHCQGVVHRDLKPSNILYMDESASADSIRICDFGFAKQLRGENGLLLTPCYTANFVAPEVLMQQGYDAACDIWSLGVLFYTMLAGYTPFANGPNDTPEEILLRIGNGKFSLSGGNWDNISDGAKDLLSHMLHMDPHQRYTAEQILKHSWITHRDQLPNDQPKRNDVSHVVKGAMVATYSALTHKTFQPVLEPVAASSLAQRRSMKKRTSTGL

[4] = target: Receptor tyrosine-protein kinase erbB-2 (Homo sapiens, UniProt P04626)
Receptor tyrosine-protein kinase erbB-2, sequence (P04626 whole entry): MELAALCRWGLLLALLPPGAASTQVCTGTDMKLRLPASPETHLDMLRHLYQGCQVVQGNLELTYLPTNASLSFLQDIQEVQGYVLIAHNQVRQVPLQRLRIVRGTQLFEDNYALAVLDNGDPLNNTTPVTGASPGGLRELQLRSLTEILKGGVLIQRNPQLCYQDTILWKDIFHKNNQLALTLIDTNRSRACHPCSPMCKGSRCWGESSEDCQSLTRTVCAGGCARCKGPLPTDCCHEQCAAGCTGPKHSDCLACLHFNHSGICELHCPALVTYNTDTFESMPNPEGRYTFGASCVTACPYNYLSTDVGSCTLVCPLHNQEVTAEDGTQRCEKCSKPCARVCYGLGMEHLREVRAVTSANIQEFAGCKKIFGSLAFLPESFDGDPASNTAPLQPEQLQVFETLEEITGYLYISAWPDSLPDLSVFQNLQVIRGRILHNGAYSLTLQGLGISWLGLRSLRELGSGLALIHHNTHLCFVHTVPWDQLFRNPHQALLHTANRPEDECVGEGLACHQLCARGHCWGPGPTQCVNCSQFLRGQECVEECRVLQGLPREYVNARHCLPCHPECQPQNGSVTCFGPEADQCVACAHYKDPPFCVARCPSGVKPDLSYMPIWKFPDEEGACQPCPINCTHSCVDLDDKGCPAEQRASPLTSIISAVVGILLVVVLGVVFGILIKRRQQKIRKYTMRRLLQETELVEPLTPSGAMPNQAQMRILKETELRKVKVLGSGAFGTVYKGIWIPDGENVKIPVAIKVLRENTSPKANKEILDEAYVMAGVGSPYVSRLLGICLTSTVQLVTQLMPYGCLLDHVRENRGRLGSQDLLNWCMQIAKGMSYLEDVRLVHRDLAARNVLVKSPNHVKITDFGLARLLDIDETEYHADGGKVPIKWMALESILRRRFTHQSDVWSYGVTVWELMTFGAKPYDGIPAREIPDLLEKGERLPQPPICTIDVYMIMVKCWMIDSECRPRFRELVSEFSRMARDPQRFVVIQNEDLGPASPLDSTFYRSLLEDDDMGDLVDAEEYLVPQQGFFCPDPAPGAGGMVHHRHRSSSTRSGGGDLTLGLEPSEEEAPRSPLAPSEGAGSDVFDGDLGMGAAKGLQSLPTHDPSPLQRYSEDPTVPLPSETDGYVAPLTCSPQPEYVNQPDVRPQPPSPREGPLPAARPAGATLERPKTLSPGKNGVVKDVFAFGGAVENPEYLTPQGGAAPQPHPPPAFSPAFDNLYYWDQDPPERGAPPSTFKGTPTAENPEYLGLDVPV

[5] = target: Protein kinase C delta type (Homo sapiens) (UniProt Q05655); experiment: Selectivity interaction (KinomeScan (DiscoverX)) EUB0000618a PRKCD
[6] = target: Calcium/calmodulin-dependent protein kinase type II subunit alpha (Homo sapiens, UniProt Q9UQM7)
Calcium/calmodulin-dependent protein kinase type II subunit alpha, sequence (Q9UQM7 whole entry): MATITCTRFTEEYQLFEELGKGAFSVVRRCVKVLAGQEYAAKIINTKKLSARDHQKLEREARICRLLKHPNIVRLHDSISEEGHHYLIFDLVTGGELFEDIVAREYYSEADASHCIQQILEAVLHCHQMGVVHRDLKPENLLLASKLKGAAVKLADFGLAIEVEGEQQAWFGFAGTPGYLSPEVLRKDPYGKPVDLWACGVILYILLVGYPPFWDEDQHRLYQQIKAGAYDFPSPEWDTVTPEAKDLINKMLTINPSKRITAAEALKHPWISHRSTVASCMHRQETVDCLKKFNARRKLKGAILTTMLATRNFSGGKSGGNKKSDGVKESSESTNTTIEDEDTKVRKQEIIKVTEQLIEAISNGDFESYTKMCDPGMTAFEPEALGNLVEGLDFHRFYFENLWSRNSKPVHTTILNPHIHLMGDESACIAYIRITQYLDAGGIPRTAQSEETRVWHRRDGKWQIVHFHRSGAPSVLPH

[7] = target: Serine/threonine-protein kinase MRCK beta (Homo sapiens) (UniProt Q9Y5S2); experiment: Selectivity interaction (KinomeScan (DiscoverX)) EUB0000655a CDC42BPB
Serine/threonine-protein kinase MRCK beta (Homo sapiens), sequence (Q9Y5S2 whole entry): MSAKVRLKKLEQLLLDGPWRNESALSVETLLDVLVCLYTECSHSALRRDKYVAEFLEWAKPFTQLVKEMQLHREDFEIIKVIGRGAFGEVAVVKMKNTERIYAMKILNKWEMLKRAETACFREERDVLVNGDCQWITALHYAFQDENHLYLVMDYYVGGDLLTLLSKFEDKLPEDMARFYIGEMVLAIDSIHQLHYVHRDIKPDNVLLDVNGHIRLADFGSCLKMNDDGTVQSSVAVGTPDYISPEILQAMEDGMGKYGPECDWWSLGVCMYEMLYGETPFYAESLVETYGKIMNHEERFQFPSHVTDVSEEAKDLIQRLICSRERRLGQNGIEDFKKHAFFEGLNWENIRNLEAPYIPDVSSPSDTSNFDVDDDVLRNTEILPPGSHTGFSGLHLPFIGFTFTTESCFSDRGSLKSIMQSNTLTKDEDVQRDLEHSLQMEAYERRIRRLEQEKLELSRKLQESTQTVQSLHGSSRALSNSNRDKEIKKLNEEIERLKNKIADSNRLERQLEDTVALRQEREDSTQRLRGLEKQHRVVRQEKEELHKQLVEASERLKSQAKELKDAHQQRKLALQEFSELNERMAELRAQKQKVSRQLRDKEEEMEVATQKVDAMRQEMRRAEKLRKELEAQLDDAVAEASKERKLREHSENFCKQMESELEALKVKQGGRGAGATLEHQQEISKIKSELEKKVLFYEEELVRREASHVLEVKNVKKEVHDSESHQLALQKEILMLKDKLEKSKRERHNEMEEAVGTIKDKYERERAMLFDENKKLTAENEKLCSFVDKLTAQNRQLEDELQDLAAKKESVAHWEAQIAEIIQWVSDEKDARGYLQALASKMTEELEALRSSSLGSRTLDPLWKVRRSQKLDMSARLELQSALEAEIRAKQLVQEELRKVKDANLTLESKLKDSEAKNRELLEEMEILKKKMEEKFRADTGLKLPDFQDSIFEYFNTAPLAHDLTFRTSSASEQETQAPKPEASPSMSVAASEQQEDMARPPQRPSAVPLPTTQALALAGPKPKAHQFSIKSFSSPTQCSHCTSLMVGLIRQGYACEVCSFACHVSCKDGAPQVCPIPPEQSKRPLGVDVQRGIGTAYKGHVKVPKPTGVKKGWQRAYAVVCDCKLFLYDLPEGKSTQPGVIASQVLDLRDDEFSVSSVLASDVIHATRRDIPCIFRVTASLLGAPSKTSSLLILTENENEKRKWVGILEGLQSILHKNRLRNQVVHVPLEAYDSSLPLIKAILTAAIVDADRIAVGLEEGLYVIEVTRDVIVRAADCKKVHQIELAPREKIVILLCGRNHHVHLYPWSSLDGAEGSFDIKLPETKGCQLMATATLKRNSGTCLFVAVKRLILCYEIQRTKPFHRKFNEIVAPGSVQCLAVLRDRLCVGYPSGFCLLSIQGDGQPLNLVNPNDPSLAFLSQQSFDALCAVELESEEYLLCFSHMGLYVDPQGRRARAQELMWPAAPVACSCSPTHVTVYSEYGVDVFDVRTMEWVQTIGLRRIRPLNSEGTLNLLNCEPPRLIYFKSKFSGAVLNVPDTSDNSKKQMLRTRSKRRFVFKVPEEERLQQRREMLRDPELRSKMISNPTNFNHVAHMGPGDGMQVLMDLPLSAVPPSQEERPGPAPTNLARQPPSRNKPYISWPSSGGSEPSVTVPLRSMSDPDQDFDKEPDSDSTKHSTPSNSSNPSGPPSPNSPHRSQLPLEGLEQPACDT

[8] = target: Protein kinase C theta type (Homo sapiens, UniProt Q04759); experiment: Selectivity interaction (KinomeScan (DiscoverX)) EUB0000607a PRKCQ
[9] = target: T3, Phosphorylase b kinase gamma catalytic chain, liver/testis isoform (Homo sapiens) (UniProt P15735); experiment: Selectivity interaction (Kinase panel (Z-LYTE Assay)) EUB0001632a PHKG2
T3 sequence (whole entry): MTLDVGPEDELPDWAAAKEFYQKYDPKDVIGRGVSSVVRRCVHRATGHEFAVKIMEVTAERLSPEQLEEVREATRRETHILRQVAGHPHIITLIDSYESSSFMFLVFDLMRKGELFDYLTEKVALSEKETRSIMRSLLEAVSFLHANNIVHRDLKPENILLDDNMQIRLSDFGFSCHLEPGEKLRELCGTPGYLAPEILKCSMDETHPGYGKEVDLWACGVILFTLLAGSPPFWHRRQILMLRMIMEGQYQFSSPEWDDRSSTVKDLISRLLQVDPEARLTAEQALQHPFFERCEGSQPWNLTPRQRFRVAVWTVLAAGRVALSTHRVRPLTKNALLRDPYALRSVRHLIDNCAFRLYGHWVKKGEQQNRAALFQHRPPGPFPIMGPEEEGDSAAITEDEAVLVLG

[10] = target: Phosphorylase b kinase gamma catalytic chain, skeletal muscle/heart isoform (Homo sapiens) (UniProt Q16816); experiment: Selectivity interaction (Kinase panel (Z-LYTE Assay)) EUB0001632a PHKG1
Phosphorylase b kinase gamma catalytic chain, skeletal muscle/heart isoform (Homo sapiens), sequence (Q16816 whole entry, looked up, canonical isoform): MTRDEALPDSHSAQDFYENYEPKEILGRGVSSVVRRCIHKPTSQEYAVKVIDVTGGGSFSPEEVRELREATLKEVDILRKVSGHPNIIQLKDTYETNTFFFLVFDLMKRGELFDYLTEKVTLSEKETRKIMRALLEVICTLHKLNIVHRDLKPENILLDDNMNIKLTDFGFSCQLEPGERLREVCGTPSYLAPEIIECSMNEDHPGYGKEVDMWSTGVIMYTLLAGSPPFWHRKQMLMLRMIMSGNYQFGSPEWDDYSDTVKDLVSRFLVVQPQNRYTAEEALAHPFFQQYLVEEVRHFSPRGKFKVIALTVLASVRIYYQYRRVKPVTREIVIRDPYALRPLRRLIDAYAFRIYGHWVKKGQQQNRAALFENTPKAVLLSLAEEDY

Work on `O=C(NOC[C@H](O)CO)c1ccc(F)c(F)c1Nc1ccc(I)cc1F` yielded a % of control [1] of 100%.
`CC(=O)c1cc(-c2ccccc2OCC2CC2)c2ncccn12` showed a % of control [2] of 83%.
`CCN(CC)CCCCNc1ncc2cc(-c3cc(OC)cc(OC)c3)c(NC(=O)NC(C)(C)C)nc2n1` gave a % of control [3] of 100%.
With `COCC(=O)NC/C=C/c1ccc2ncnc(Nc3ccc(Oc4ccc(C)nc4)c(C)c3)c2c1` [CP-724714] the % of control [4] was 0%.
Work on `O[C@H]1CC[C@H](Nc2ncc3nc(Nc4c(F)cc(F)cc4F)n([C@H]4CCOC4)c3n2)CC1` yielded a % of control [5] of 93%.
`Cc1cc([C@@H](C)Nc2ccccc2C(=O)O)c2nc(N3CCOCC3)cc(=O)n2c1` [AZD-6482] was tested, and the % of control [6] was 75%.
`CN(C)CCOc1ccc(-c2nc(-c3ccncc3)c(-c3ccc4c(c3)CC/C4=N\O)[nH]2)cc1` showed a % of control [7] of 89%.
For `CNC(=O)Nc1ccc(-c2nc(N3CC4CCC(C3)O4)c3cnn(C4CCC5(CC4)OCCO5)c3n2)cc1`, the % of control [8] was 100%.
`Cn1cc(-n2cnc3c(NCc4nc5cc(Cl)c(Cl)cc5[nH]4)nc(N4CCOCC4)nc32)cn1` showed a % of control [9] of 4.25% and a % of control [10] of -6.26%.
